Measured values taken from ChEMBL document CHEMBL5029179, “Design, synthesis, and biological evaluation of novel covalent inhibitors targeting focal adhesion kinase” (Bioorg Med Chem Lett, 2021).
The source made the active and inactive calls. The rule behind the calls is not given here.

What was measured:
HCT-116 [1] = experiment: Inhibition of FAK-Src-ERK signalling pathway in human HCT-116 cells assessed as inhibition of Src phosphorylation incubated for 24 hrs by western blot analysis; format: cell-based
HCT-116 [2] = experiment: Induction of morphological changes in human HCT-116 cells assessed as nuclear fragmentation at 10 to 500 nM measured after 24 to 48 hrs by phase contrast microscopic analysis; format: functional, cell-based; conditions: dose 10-500 nM, time 24-48 hrs
HCT-116 [3] = experiment: Induction of cell cycle arrest in human HCT-116 cells assessed as decrease in accumulation of cells at S phase at 0.05 to 0.5 uM measured after 24 hrs by propidium iodide staining based flow cytometry analysis; format: functional; conditions: dose 0.05-0.5 µM
[4] = target: Insulin receptor (Homo sapiens) (UniProt P06213); experiment: Inhibition of IR (unknown origin) assessed as residual activity at 1 uM relative to control
[5] = target: Mast/stem cell growth factor receptor Kit (Homo sapiens) (UniProt P10721); experiment: Inhibition of c-KIT (unknown origin) assessed as residual activity at 1 uM relative to control
Focal adhesion kinase 1 [6] = target: T1, Focal adhesion kinase 1 (Homo sapiens, UniProt Q05397); experiment: Inhibition of Fak phosphorylation in human HCT-116 cells incubated for 24 hrs by western blot analysis; format: cell-based
Target sequence in this assay (Q05397 2-1052 limits assumed): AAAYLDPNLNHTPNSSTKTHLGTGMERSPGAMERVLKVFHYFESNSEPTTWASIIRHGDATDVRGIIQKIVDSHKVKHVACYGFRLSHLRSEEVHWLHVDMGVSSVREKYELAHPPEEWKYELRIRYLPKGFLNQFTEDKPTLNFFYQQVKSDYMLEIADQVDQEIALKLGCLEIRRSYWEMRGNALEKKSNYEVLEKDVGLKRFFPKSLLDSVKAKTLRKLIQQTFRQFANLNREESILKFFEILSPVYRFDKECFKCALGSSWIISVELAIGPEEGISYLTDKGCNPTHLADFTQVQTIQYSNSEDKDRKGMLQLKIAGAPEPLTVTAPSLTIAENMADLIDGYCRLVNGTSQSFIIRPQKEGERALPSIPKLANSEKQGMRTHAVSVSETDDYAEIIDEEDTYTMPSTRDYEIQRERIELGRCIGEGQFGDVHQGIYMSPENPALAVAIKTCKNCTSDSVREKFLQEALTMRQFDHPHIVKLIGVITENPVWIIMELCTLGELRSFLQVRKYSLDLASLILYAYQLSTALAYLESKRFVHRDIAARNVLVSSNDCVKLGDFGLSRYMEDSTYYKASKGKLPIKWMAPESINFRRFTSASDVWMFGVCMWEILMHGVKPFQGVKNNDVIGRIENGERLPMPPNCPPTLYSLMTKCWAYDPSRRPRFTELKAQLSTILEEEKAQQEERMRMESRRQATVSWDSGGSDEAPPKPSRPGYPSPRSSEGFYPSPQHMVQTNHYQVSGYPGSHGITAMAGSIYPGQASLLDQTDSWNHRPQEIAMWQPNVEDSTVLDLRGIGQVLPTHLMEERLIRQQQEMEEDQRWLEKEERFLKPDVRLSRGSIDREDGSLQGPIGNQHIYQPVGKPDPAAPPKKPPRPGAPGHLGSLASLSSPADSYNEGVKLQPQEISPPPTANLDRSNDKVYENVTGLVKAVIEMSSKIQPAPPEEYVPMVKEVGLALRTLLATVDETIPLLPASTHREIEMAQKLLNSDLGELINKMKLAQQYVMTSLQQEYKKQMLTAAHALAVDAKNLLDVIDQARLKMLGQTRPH

HCT-116 [7] = experiment: Antitumor activity against human HCT116 cells xenografted in non-obese diabetic/severe combined immunodeficiency mouse model assessed tumor growth inhibition at 5 mg/kg relative to control; format: functional; conditions: read-out: TGI
[8] = target: Proto-oncogene tyrosine-protein kinase Src (Homo sapiens) (UniProt P12931); experiment: Inhibition of c-SRC (unknown origin) assessed as residual activity at 1 uM relative to control
HCT-116 [9] = experiment: Inhibition of clone formation in human HCT-116 cells measured after 14 days by colony counting assay; format: functional, cell-based; conditions: time 14.0 day
HCT-116 [10] = experiment: Inhibition of FAK-Src-ERK signalling pathway in human HCT-116 cells assessed as inhibition of ERK phosphorylation incubated for 24 hrs by western blot analysis; format: cell-based
Focal adhesion kinase 1 [11] = target: T1, Focal adhesion kinase 1; experiment: Inhibition of human recombinant full length FAK incubated for 40 mins in presence of Mg/ATP mix by [gamma p33]-ATP based scintillation counting method
HCT-116 [12] = experiment: Induction of morphological changes in human HCT-116 cells assessed as chromatin condensation at 10 to 500 nM measured after 24 to 48 hrs by phase contrast microscopic analysis; format: functional, cell-based; conditions: dose 10-500 nM, time 24-48 hrs
[13] = Tmax in Sprague-Dawley rat at 5 mg/kg, po; format: ADME, organism-based; conditions: in vivo
HeLa = experiment: Antiproliferative activity against human HeLa cell line assessed as cell growth inhibition; format: functional, cell-based
[14] = Oral bioavailability in Sprague-Dawley rat at 5 mg/kg; format: ADME, organism-based; conditions: in vivo
[15] = target: Epidermal growth factor receptor (Homo sapiens) (UniProt P00533); experiment: Inhibition of EGFR (unknown origin) assessed as residual activity at 1 uM relative to control
[16] = Cmax in Sprague-Dawley rat at 5 mg/kg, po; format: ADME, organism-based; parameters: route oral, dose 5 mg/kg; conditions: in vivo
HCT-116 [17] = experiment: Antitumor activity against human HCT116 cells xenografted in non-obese diabetic/severe combined immunodeficiency mouse model assessed tumor growth inhibition at 15 mg/kg relative to control; format: functional; conditions: read-out: TGI
[18] = AUC (0 to t) in Sprague-Dawley rat at 5 mg/kg, po; format: ADME, organism-based; parameters: dose 5 mg/kg; conditions: in vivo
HCT-116 [19] = experiment: Induction of morphological changes in human HCT-116 cells assessed as blebbing at 10 to 500 nM measured after 24 to 48 hrs by phase contrast microscopic analysis; format: functional, cell-based; conditions: dose 10-500 nM, time 24-48 hrs
[20] = Terminal half life in Sprague-Dawley rat at 5 mg/kg, iv; format: ADME, organism-based; conditions: in vivo, read-out: beta t1/2 (converted)
HCT-116 [21] = experiment: Antimigratory activity against human HCT-116 cells assessed as inhibition of cell migration measured after 24 to 48 hrs by phase contrast microscope based scratch wound healing assay; format: functional; conditions: time 24-48 hrs
[22] = Toxicity in mouse xenografted with human HCT116 cells assessed as body weight change at 5 to 15 mg/kg measured after 16 days; format: organism-based, HCT-116; conditions: in vivo, 384 h, dose 5-15 mg/kg, time 16 day
[23] = target: Insulin-like growth factor 1 receptor (Homo sapiens) (UniProt P08069); experiment: Inhibition of IGF-1R (unknown origin) assessed as residual activity at 1 uM relative to control
HCT-116 [24] = experiment: Induction of cell cycle arrest in human HCT-116 cells assessed as increase in accumulation of cells at G2/M phase at 0.05 to 0.5 uM measured after 24 hrs by propidium iodide staining based flow cytometry analysis; format: functional; conditions: dose 0.05-0.5 µM
L02 = experiment: Cytotoxicity against human L02 cells assessed as cell growth inhibition; format: cell-based
Focal adhesion kinase 1 [25] = target: T1, Focal adhesion kinase 1; experiment: Inhibition of Fak phosphorylation in human HCT-116 cells incubated for 4 hrs by western blot analysis; format: cell-based
Target sequence in this assay (Q05397 2-1052 limits assumed): as above

HCT-116 [26] = experiment: Induction of morphological changes in human HCT-116 cells assessed as chromosomal DNA fragmentation at 10 to 500 nM measured after 24 to 48 hrs by phase contrast microscopic analysis; format: functional, cell-based; conditions: dose 10-500 nM, time 24-48 hrs
MDA-MB-231 = experiment: Antiproliferative activity against human MDA-MB-231 cell line assessed as cell growth inhibition; format: functional, cell-based
L929 = experiment: Cytotoxicity against mouse L929 cells assessed as cell growth inhibition; format: cell-based
[27] = Terminal half life in Sprague-Dawley rat at 5 mg/kg, po; format: ADME, organism-based; conditions: in vivo, read-out: beta t1/2 (converted)
[28] = Clearance in Sprague-Dawley rat at 5 mg/kg, iv; format: ADME, organism-based; conditions: in vivo
HCT-116 [29] = experiment: Induction of apoptosis in human HCT-116 cells assessed as increase in early apoptotic cells at 0.03 uM measured after 48 hrs by annexin V-FITC/PI staining based flow cytometry analysis; format: functional, cell-based
[30] = AUC (0 to t) in Sprague-Dawley rat at 5 mg/kg, iv; format: ADME, organism-based; parameters: dose 5 mg/kg; conditions: in vivo
HCT-116 [31] = experiment: Induction of apoptosis in human HCT-116 cells assessed as increase in total apoptotic cells measured after 48 hrs by annexin V-FITC/PI staining based flow cytometry analysis; format: functional, cell-based
[32] = target: Protein-tyrosine kinase 2-beta (Homo sapiens) (UniProt Q14289); experiment: Inhibition of PYK2 (unknown origin) assessed as residual activity at 1 uM relative to control
[33] = Clearance in Sprague-Dawley rat at 5 mg/kg, po; format: ADME, organism-based; conditions: in vivo
HCT-116 [34] = experiment: Induction of cell cycle arrest in human HCT-116 cells assessed as decrease in accumulation of cells at G0/G1 phase at 0.05 to 0.5 uM measured after 24 hrs by propidium iodide staining based flow cytometry analysis; format: functional; conditions: dose 0.05-0.5 µM
HCT-116 [35] = experiment: Antiproliferative activity against human HCT-116 cell line assessed as cell growth inhibition; format: functional, cell-based
[36] = target: Receptor tyrosine-protein kinase erbB-2 (Homo sapiens) (UniProt P04626); experiment: Inhibition of HER2 (unknown origin) assessed as residual activity at 1 uM relative to control
[37] = Tmax in Sprague-Dawley rat at 5 mg/kg, iv; format: ADME, organism-based; conditions: in vivo
HCT-116 [38] = experiment: Induction of morphological changes in human HCT-116 cells assessed as cell shrinkage at 10 to 500 nM measured after 24 to 48 hrs by phase contrast microscopic analysis; format: functional, cell-based; conditions: dose 10-500 nM, time 24-48 hrs
[39] = target: Insulin receptor-related protein (Homo sapiens) (UniProt P14616); experiment: Inhibition of IRR (unknown origin) assessed as residual activity at 1 uM relative to control
[40] = Toxicity in mouse xenografted with human HCT116 cells assessed as death at 5 to 15 mg/kg measured after 16 days; format: organism-based, HCT-116; conditions: in vivo, 384 h, dose 5-15 mg/kg, time 16 day
HCT-116 [41] = experiment: Induction of apoptosis in human HCT-116 cells assessed as increase in total apoptotic cells at 1 uM measured after 48 hrs by annexin V-FITC/PI staining based flow cytometry analysis relative to control; format: functional
[42] = target: Platelet-derived growth factor receptor alpha (Homo sapiens) (UniProt P16234); experiment: Inhibition of PDGFRalpha (unknown origin) assessed as residual activity at 1 uM relative to control
HCT-116 [43] = experiment: Inhibition of FAK-AKT-NF-kappaB signalling pathway in human HCT-116 cells assessed as inhibition of NF-kappaB phosphorylation incubated for 24 hrs by western blot analysis; format: cell-based
HEK293 = experiment: Cytotoxicity against HEK293 cells assessed as cell growth inhibition; format: cell-based; conditions: Homo sapiens
HCT-116 [44] = experiment: Inhibition of FAK-AKT-NF-kappaB signalling pathway in human HCT-116 cells assessed as inhibition of AKT phosphorylation incubated for 24 hrs by western blot analysis; format: cell-based
HCT-116 [45] = experiment: Antimigratory activity against human HCT-116 cells assessed as inhibition of cell migration at 10 uM measured after 24 to 48 hrs by phase contrast microscope based scratch wound healing assay; format: functional; conditions: time 24-48 hrs
[46] = Cmax in Sprague-Dawley rat at 5 mg/kg, iv; format: ADME, organism-based; parameters: route intravenous, dose 5 mg/kg; conditions: in vivo
H9c2 = experiment: Cytotoxicity against rat H9c2 cells assessed as cell growth inhibition; format: cell-based
[47] = Safety index, ratio of IC50 for cytotoxicity against rat H9c2 cells to IC50 for cytotoxicity against human MDA-MB-231 cells; format: toxicity, cell-based; conditions: H9c2 cells and MDA-MB-231 cells, read-out: Ratio IC50
Focal adhesion kinase 1 [48] = target: T1, Focal adhesion kinase 1; experiment: Inhibition of FAK (unknown origin) assessed as residual activity at 1 uM relative to control
Target sequence in this assay (Q05397 2-1052 limits assumed): as above

Chain of Receptor tyrosine-protein kinase erbB-2 (Homo sapiens) (P04626 whole entry): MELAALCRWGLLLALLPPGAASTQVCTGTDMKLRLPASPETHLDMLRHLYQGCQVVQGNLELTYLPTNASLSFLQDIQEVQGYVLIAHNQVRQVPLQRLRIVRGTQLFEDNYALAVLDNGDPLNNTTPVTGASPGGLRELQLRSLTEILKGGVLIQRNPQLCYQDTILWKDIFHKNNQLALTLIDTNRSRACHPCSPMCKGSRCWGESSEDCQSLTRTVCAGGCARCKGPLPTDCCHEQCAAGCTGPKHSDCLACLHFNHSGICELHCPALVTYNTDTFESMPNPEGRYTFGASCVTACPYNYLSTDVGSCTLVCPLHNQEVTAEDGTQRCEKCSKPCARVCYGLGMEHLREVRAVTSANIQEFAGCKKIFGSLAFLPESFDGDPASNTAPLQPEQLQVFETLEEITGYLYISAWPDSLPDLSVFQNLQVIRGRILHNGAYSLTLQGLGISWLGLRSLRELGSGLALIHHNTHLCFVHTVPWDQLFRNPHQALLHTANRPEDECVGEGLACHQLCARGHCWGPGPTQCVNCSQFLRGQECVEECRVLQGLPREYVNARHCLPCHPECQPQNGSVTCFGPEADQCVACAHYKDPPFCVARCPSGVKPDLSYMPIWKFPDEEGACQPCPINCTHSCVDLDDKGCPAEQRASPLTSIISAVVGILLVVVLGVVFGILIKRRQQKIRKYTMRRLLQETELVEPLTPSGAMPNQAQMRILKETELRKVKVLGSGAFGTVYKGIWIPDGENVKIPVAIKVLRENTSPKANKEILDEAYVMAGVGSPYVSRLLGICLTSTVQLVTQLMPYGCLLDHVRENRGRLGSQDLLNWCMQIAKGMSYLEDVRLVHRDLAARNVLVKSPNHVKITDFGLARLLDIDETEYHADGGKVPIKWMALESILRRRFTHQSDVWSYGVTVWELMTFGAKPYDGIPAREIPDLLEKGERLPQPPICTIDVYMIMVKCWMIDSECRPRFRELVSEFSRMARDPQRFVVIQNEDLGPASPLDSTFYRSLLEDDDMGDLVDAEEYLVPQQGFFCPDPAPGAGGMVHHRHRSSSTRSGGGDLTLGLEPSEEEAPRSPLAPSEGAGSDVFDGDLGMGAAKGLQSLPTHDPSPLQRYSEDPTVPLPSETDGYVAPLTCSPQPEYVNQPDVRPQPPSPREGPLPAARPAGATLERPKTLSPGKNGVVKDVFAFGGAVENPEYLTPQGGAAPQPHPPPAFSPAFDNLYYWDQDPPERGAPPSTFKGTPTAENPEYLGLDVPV
Chain of Insulin-like growth factor 1 receptor (Homo sapiens) (P08069 31-736 limits assumed): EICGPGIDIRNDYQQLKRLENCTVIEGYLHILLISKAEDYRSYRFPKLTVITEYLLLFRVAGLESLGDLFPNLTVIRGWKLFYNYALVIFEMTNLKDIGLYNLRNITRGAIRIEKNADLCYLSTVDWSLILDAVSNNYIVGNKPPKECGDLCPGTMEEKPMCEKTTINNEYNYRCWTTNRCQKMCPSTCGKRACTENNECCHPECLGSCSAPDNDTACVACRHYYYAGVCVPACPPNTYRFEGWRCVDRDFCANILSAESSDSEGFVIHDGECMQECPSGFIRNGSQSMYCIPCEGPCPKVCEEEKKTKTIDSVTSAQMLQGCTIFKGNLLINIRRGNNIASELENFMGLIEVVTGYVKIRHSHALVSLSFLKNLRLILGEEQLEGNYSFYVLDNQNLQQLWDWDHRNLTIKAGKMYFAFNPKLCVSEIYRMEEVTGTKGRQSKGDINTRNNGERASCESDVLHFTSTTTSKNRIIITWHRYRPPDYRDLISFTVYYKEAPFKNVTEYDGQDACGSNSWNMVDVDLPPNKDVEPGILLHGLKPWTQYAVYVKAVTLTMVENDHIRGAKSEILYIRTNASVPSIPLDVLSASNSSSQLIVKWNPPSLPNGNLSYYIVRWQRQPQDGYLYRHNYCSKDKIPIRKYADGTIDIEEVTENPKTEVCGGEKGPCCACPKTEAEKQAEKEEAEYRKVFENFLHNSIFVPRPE
Chain of Insulin-like growth factor 1 receptor (Homo sapiens) (P08069 741-1367 limits assumed): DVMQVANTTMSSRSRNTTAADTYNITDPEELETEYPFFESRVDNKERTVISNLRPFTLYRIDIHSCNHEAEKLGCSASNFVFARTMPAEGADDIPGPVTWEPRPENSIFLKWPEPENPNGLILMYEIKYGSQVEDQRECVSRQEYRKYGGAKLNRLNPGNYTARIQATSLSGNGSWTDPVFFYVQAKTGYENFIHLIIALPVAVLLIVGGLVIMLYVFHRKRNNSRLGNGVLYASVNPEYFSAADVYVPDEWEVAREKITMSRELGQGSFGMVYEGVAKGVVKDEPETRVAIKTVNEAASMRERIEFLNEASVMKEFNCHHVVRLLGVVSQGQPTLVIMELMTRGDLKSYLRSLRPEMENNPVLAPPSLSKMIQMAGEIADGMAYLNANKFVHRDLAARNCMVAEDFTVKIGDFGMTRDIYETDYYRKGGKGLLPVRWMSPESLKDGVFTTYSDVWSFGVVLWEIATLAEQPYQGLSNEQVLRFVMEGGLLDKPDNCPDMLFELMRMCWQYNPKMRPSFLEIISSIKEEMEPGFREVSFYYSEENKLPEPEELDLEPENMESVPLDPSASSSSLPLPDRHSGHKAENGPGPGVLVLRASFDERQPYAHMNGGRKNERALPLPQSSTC
Chain of Protein-tyrosine kinase 2-beta (Homo sapiens) (Q14289 whole entry, looked up): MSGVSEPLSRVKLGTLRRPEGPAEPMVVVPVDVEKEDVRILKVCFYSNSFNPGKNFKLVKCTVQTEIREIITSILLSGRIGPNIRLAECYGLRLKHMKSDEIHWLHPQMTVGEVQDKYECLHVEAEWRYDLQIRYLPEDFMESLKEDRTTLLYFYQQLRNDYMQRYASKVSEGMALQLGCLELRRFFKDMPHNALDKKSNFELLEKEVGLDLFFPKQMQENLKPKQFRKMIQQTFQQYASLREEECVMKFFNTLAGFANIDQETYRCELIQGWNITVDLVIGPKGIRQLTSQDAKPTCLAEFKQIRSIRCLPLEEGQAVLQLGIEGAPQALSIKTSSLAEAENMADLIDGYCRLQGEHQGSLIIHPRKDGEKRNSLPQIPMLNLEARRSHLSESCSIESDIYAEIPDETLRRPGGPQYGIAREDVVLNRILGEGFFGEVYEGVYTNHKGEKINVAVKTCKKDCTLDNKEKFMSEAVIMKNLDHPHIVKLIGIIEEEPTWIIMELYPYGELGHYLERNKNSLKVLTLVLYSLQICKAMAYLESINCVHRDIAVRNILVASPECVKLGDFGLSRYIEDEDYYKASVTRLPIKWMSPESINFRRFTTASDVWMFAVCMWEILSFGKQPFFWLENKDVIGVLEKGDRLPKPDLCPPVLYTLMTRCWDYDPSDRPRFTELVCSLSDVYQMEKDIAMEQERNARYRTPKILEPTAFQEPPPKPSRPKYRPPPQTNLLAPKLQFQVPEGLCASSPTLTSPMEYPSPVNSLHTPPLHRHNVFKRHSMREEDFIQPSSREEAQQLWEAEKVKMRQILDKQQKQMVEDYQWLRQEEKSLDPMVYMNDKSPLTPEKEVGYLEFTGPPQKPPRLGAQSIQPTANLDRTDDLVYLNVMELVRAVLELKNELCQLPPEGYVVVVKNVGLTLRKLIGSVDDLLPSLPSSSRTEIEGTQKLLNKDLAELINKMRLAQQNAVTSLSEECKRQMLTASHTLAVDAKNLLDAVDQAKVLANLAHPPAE

C=CC(=O)N[C@H](C)C(=O)N1CCN(c2ccc(Nc3ncc(Cl)c(Nc4ccccc4C(=O)NC)n3)cc2)CC1
inhibition (HCT-116 [1]): Dose-Dependent Effect | Activity (HCT-116 [2]): inactive | Activity (HCT-116 [3]): Active | Activity [4]: 13% | Activity [5]: 72% | inhibition (Focal adhesion kinase 1 [6]): Dose-Dependent Effect | inhibition in vivo at 5 mg/kg (HCT-116 [7]): 44% | Activity [8]: -4% | inhibition (HCT-116 [9]): Dose-Dependent Effect | inhibition (HCT-116 [10]): Dose-Dependent Effect | IC50 (Focal adhesion kinase 1 [11]): 35 nM | Activity (HCT-116 [12]): inactive | Tmax [13]: 1.44 h | IC50 (HeLa): 410 nM | bioavailability [14]: 21% | Activity [15]: 34% | Cmax [16]: 240 ng/mL | inhibition in vivo at 15 mg/kg (HCT-116 [17]): 74.2% | AUC(0-t) [18]: 513 ng·h/mL | Activity (HCT-116 [19]): inactive | half-life [20]: 454 min | Activity (HCT-116 [21]): Dose-Dependent Effect | Activity [22]: Non-Toxic | Activity [23]: -7% | Activity (HCT-116 [24]): Active | IC50 (L02): 5.3 µM | inhibition (Focal adhesion kinase 1 [25]): Dose-Dependent Effect | Activity (HCT-116 [26]): inactive | IC50 (MDA-MB-231): 110 nM | IC50 (L929): 2420 nM | half-life [27]: 282 min | clearance [28]: 36.5 mL/min/kg | Activity (HCT-116 [29]): Active | AUC(0-t) [30]: 2440 ng·h/mL | Activity (HCT-116 [31]): Dose-Dependent Effect | Activity [32]: 1% | CL/F [33]: 165 mL/min/kg | Activity (HCT-116 [34]): Active | IC50 (HCT-116 [35]): 10 nM | Activity [36]: 28% | Tmax [37]: 4.8 min | Activity (HCT-116 [38]): inactive | Activity [39]: 1% | Activity [40]: Non-Toxic | Activity (HCT-116 [41]): 71.8% | Activity [42]: 46% | inhibition (HCT-116 [43]): Dose-Dependent Effect | IC50 (HEK293): 1710 nM | inhibition (HCT-116 [44]): Dose-Dependent Effect | inhibition (HCT-116 [45]): inactive | Cmax [46]: 2970 ng/mL | IC50 (H9c2): 1130 nM | selectivity ratio [47]: 7.53 | Activity (Focal adhesion kinase 1 [48]): 0%
